Measurements published in patent publication US11014911B2, “CDK2 inhibitors” (Pfizer Inc., priority 2019, dated 2021).
pKi: −log10 of the molar value.

The molecules below were run against CDK2/Cyclin E1 full length (Homo sapiens (Human), UniProt P24941) (assay: CDK2/Cyclin E1 full length mobility shift assay).
Assay type: biochemical

pKi | Structure (SMILES)
8.49 | O=C(Cc1cc(F)cc(F)c1)Nc1cc([C@@H]2CC[C@H](OC(=O)NCC3CCCOC3)C2)[nH]n1 (single isomer, unassigned) [Example 516]
8.82 | CCC(CO)CNC(=O)O[C@@H]1CC[C@H](c2cc(NC(=O)Cc3ccc(OC)cc3)n[nH]2)C1 (single isomer, unassigned) [Example 531]
9.12 | C[C@H]1CCN1C(=O)O[C@@H]1CC[C@H](c2cc(NC(=O)Cc3cnn(C)c3)n[nH]2)C1 [Example 588, (1R,3S)-3-(3-{[(1-methyl-1H-pyrazol-4-yl)acetyl]amino}-1H-pyrazol-5-yl)cyclopentyl (2S)-2-methylazetidine-1-carboxylate]
8.84 | Cc1cnc(CC(=O)Nc2cc([C@H]3CC[C@@H](OC(=O)N(C)C(C)C)C3)[nH]n2)o1 [Example 290, (1R,3S)-3-(3-{[(5-methyl-1,3-oxazol-2-yl)acetyl]amino}-1H-pyrazol-5-yl)cyclopentyl methyl(propan-2-yl)carbamate]
8.64 | Cc1cnc(CC(=O)Nc2cc([C@H]3CC[C@@H](OC(=O)NC(C)CC(F)(F)F)C3)[nH]n2)cn1 (single isomer, unassigned) [Example 73]
9.52 | COc1cnc(CC(=O)Nc2cc([C@H]3CC[C@@H](OC(=O)N4CCC4(C)C)C3)[nH]n2)cn1 [Example 602, (1R,3S)-3-(3-{[(5-methoxypyrazin-2-yl)acetyl]amino}-1H-pyrazol-5-yl)cyclopentyl 2,2-dimethylazetidine-1-carboxylate]
8.83 | Cc1csc(CC(=O)Nc2cc([C@H]3CC[C@@H](OC(=O)N4CCC[C@@H]4C)C3)[nH]n2)n1 [Example 637, (1R,3S)-3-(3-{[(4-methyl-1,3-thiazol-2-yl)acetyl]amino}-1H-pyrazol-5-yl)cyclopentyl (2S)-2-methylpyrrolidine-1-carboxylate]
8.36 | CCCNC(=O)O[C@@H]1CC[C@H](c2cc(NC(=O)c3ccnn3CCN(C)C)n[nH]2)C1 [Example 195, (1R,3S)-3-{3-[({1-[2-(dimethylamino)ethyl]-1H-pyrazol-5-yl}carbonyl)amino]-1H-pyrazol-5-yl}cyclopentyl propylcarbamate]
8.54 | CC(C)NC(=O)O[C@@H]1CC[C@H](c2cc(NC(=O)c3cncn3C)n[nH]2)C1 [Example 260, (1R,3S)-3-(3-{[(1-methyl-1H-imidazol-5-yl)carbonyl]amino}-1H-pyrazol-5-yl)cyclopentyl propan-2-ylcarbamate]
8.43 | CC[C@H](C)NC(=O)O[C@@H]1CC[C@H](c2cc(NC(=O)Cc3cn4cccnc4n3)n[nH]2)C1 [Example 354, (1R,3S)-3-{3-[(imidazo[1,2-a]pyrimidin-2-ylacetyl)amino]-1H-pyrazol-5-yl}cyclopentyl (2S)-butan-2-ylcarbamate]
8.64 | O=C(Cc1cc(F)cc(F)c1)Nc1cc([C@@H]2CC[C@H](OC(=O)NC[C@H]3C[C@@H](O)C3)C2)[nH]n1 [Example 575, (1S,3R)-3-(3-{[(3,5-difluorophenyl)acetyl]amino}-1H-pyrazol-5-yl)cyclopentyl [(cis-3-hydroxycyclobutyl)methyl] carbamate]
8.78 | Cc1cnc(CC(=O)Nc2cc([C@H]3CC[C@@H](OC(=O)N4CC[C@@H]4C)C3)[nH]n2)cn1 [Example 591, (1R,3S)-3-(3-{[(5-methylpyrazin-2-yl)acetyl]amino}-1H-pyrazol-5-yl)cyclopentyl (2S)-2-methylazetidine-1-carboxylate]
9.24 | CC[C@H](C)NC(=O)O[C@@H]1CC[C@H](c2cc(NC(=O)Cc3nnc(C)s3)n[nH]2)C1 [Example 344, (1R,3S)-3-(3-{[(5-methyl-1,3,4-thiadiazol-2-yl)acetyl]amino}-1H-pyrazol-5-yl)cyclopentyl (2S)-butan-2-ylcarbamate]
8.79 | COc1ccc(CC(=O)Nc2cc([C@H]3CC[C@@H](OC(=O)N[C@H]4CC[C@](C)(O)CC4)C3)[nH]n2)cc1 [Example 567, (1R,3S)-3-(3-{[(4-methoxyphenyl)acetyl]amino}-1H-pyrazol-5-yl)cyclopentyl (trans-4-hydroxy-4-methylcyclohexyl)carbamate]
8.97 | CC(CC(F)(F)F)NC(=O)O[C@@H]1CC[C@H](c2cc(NC(=O)Cc3ccno3)n[nH]2)C1 (single isomer, unassigned) [Example 85]
8.70 | O=C(Cc1cc(F)cc(F)c1)Nc1cc([C@@H]2CC[C@H](OC(=O)NC[C@H]3C[C@H](O)C3)C2)[nH]n1 [Example 576, (1S,3R)-3-(3-{[(3,5-difluorophenyl)acetyl]amino}-1H-pyrazol-5-yl)cyclopentyl [(trans-3-hydroxycyclobutyl)methyl] carbamate]
8.95 | CCCNC(=O)O[C@@H]1CC[C@H](c2cc(NC(=O)Cc3ccccc3S(N)(=O)=O)n[nH]2)C1 [Example 204, (1R,3S)-3-(3-{[(2-sulfamoylphenyl)acetyl]-amino}-1H-pyrazol-5-yl)cyclopentyl propylcarbamate]
8.40 | Cc1cc(CC(=O)Nc2cc([C@H]3CC[C@@H](OC(=O)N4C[C@@](C)(O)[C@@H]4C)C3)[nH]n2)on1 [Example 622, (1R,3S)-3-(3-{[(3-methyl-1,2-oxazol-5-yl)acetyl]amino}-1H-pyrazol-5-yl)cyclopentyl (2S,3R)-3-hydroxy-2,3-dimethylazetidine-1-carboxylate]
8.72 | Cc1cc(CC(=O)Nc2cc([C@H]3CC[C@@H](OC(=O)N4[C@H](C)C[C@@H]4C)C3)[nH]n2)on1 [Example 607, (1R,3S)-3-(3-{[(3-methyl-1,2-oxazol-5-yl)acetyl]amino}-1H-pyrazol-5-yl)cyclopentyl (2R,4S)-2,4-dimethylazetidine-1-carboxylate]
9.48 | Cc1cnc(CC(=O)Nc2cc([C@H]3CC[C@@H](OC(=O)NC(C)(C)C)C3)[nH]n2)s1 [Example 303, (1R,3S)-3-(3-{[(5-methyl-1,3-thiazol-2-yl)acetyl]amino}-1H-pyrazol-5-yl)cyclopentyl tert-butylcarbamate]

Structure (SMILES) | pKi
COc1ccc(CC(=O)Nc2cc([C@@H]3CC[C@H](OC(=O)N[C@H]4CC[C@H](O)CC4)C3)[nH]n2)cn1 [Example 556, (1S,3R)-3-(3-{[(6-methoxypyridin-3-yl)acetyl]amino}-1H-pyrazol-5-yl)cyclopentyl (trans-4-hydroxycyclohexyl)carbamate] | 9.34
Cc1cc(CC(=O)Nc2cc([C@H]3CC[C@@H](OC(=O)N[C@@H](C)C4CC4)C3)[nH]n2)on1 [Example 468, (1R,3S)-3-(3-{[(3-methyl-1,2-oxazol-5-yl)acetyl]amino}-1H-pyrazol-5-yl)cyclopentyl [(1S)-1-cyclopropylethyl]carbamate] | 9.46
Cc1ncc(CC(=O)Nc2cc([C@H]3CC[C@@H](OC(=O)N4C[C@@H](C#N)[C@@H]4C)C3)[nH]n2)s1 (single isomer, unassigned) [Example 159] | 8.44
Cc1cnc(CC(=O)Nc2cc([C@H]3CC[C@@H](OC(=O)NC4(C)CC4)C3)[nH]n2)c(Cl)c1 [Example 438, (1R,3S)-3-(3-{[(3-chloro-5-methylpyridin-2-yl)acetyl]amino}-1H-pyrazol-5-yl)cyclopentyl (1-methylcyclopropyl)carbamate] | 8.60
Cc1nc(CC(=O)Nc2cc([C@H]3CC[C@@H](OC(=O)NC(C)C)C3)[nH]n2)ccc1Cl [Example 282, (1R,3S)-3-(3-{[(5-chloro-6-methylpyridin-2-yl)acetyl]amino}-1H-pyrazol-5-yl)cyclopentyl propan-2-ylcarbamate] | 8.63
Cc1cnc(CC(=O)Nc2cc([C@H]3CC[C@@H](OC(=O)NC4(CC(F)(F)F)CC4)C3)[nH]n2)o1 [Example 454, (1R,3S)-3-(3-{[(5-methyl-1,3-oxazol-2-yl)acetyl]amino}-1H-pyrazol-5-yl)cyclopentyl[1-(2,2,2-trifluoroethyl)cyclopropyl]carbamate] | 9.32
CC(C)NC(=O)O[C@@H]1CC[C@H](c2cc(NC(=O)Cc3cccc4ncsc34)n[nH]2)C1 [Example 284, (1R,3S)-3-{3-[(1,3-benzothiazol-7-ylacetyl)amino]-1H-pyrazol-5-yl}cyclopentyl propan-2-ylcarbamate] | 9.22
COC[C@H](C)NC(=O)O[C@@H]1CC[C@H](c2cc(NC(=O)c3cc(OC)nn3C)n[nH]2)C1 [Example 518, (1R,3S)-3-(3-{[(3-methoxy-1-methyl-1H-pyrazol-5-yl)carbonyl]amino}-1H-pyrazol-5-yl)cyclopentyl [(2S)-1-methoxypropan-2-yl]carbamate] | 8.84
CC1(NC(=O)O[C@@H]2CC[C@H](c3cc(NC(=O)Cc4ccc(C(F)(F)F)cn4)n[nH]3)C2)CC1 [Example 445, (1R,3S)-3-[3-({[5-(trifluoromethyl)pyridin-2-yl]acetyl}amino)-1H-pyrazol-5-yl]cyclopentyl (1-methylcyclopropyl)carbamate] | 9.22
COc1cnc(CC(=O)Nc2cc([C@H]3CC[C@@H](OC(=O)N[C@H](C)C4CC4)C3)[nH]n2)cn1 [Example 472, (1R,3S)-3-(3-{[(5-methoxypyrazin-2-yl)acetyl]amino}-1H-pyrazol-5-yl)cyclopentyl [(1R)-1-cyclopropylethyl]carbamate] | 8.93
COC[C@H](C)NC(=O)O[C@@H]1CC[C@H](c2cc(NC(=O)Cc3cnc(C(F)(F)F)cn3)n[nH]2)C1 [Example 523, (1R,3S)-3-[3-({[5-(trifluoromethyl)pyrazin-2-yl]acetyl}amino)-1H-pyrazol-5-yl]cyclopentyl [(2S)-1-methoxypropan-2-yl]carbamate] | 8.60
Cc1ccnc(CC(=O)Nc2cc([C@H]3CC[C@@H](OC(=O)NC4(C)CC4)C3)[nH]n2)c1 [Example 425, (1R,3S)-3-(3-{[(4-methylpyridin-2-yl)acetyl]amino}-1H-pyrazol-5-yl)cyclopentyl (1-methylcyclopropyl)carbamate] | 8.98
Cc1cc(CC(=O)Nc2cc([C@H]3CC[C@@H](OC(=O)NC4(C)CC4)C3)[nH]n2)ncc1Cl [Example 440, (1R,3S)-3-(3-{[(5-chloro-4-methylpyridin-2-yl)acetyl]amino}-1H-pyrazol-5-yl)cyclopentyl (1-methylcyclopropyl)carbamate] | 8.83
CC[C@H](C)NC(=O)O[C@@H]1CC[C@H](c2cc(NC(=O)Cc3ccn(C)n3)n[nH]2)C1 [Example 328, (1R,3S)-3-(3-{[(1-methyl-1H-pyrazol-3-yl)acetyl]amino}-1H-pyrazol-5-yl)cyclopentyl (2S)-butan-2-ylcarbamate] | 8.75
